Literature values in patent US20170042890A1, “METHODS OF REDUCING DECLINE IN VITAL CAPACITY” (Cytokinetics, Inc., priority 2014, published 2017).

Tests used:
ALS = details: cited from earlier work
[1] = administered concomitantly with tirasemtiv; prior studies; cited from earlier work

In the case of `Nc1nc2ccc(OC(F)(F)F)cc2s1` [riluzole], the “Effect on measurable parameters of neuromuscular or pulmonary function” value (ALS) is given as “does not improve” and the Riluzole exposure [1] is given as “approximately doubled”.
